Several values for one entry are separate records, joined by “and”; a condition that tells them apart may be missing. Identical values can stand only once.
Legend:
[1] = Example 2 aqueous humor concentrations; assay type: in vivo, male New Zealand White rabbits; details: for Average Peak Concentration, Aqueous Humor: suspension
Protocol: (§1) To measure the concentration of Compound 1 in plasma and ocular tissues following topical ocular, subcutaneous, and intravitreal administration, New Zealand White rabbits were administered Compound 1, and plasma and ocular samples were collected at pre-determined time points. Compound 1 formulations were prepared fresh on each day of dosing.
(§2) Ocular tissue samples from both eyes of each animal were collected and weights were recorded. Plasma and ocular tissue sample concentrations of Compound 1 were determined by LC-MS/MS.
(§3) Animals were anesthetized for ocular (topical) and intravitreal dosing following the 12IA7 IACUC protocol. Each rabbit received a bolus dose of test formulation either via topical ocular administration 3 times daily on Days 1 and 2 (at 0, 6, and 12 hours), and once on Day 3 (at 0 hours) into both eyes; via intravitreal administration into both eyes once on Day 1 (at 0 hours); or via subcutaneous administration 2 times daily on Days 1 and 2 (at 0 and 8 hours) and once daily on Day 3 (at 0 hours). Doses were given within an approximately 1 hour window each day where applicable.
(§4) On Day 1, for intravitreal administration, or on Day 3, for topical ocular and subcutaneous administration, at the appropriate ocular tissue collection time points, animals were euthanized and both eyes were enucleated immediately. Following enucleation, each eye was rinsed with phosphate-buffered saline. Ocular tissue samples from both eyes of each animal were collected at predetermined time points and weights were recorded. All the samples were frozen immediately on dry ice, and stored at −60° C. to −80° C. pending bioanalysis.
(§5) An LC-MS/MS method was developed for the determination of Compound 1 in rabbit aqueous tissues (plasma, aqueous and vitreous humor) and solid ocular tissue samples. A pre-study standard curve was analyzed to determine the specificity, range, and lower limit of quantitation of the method. Plasma and tissue homogenate study samples were extracted and analyzed. All the samples were treated identically to the standards.
(§6) One eight-point standard curve was used in each analytical batch. To be accepted, each batch must have had at least five of eight standards with accuracy within ±20% of nominal, except at the lower limit of quantification (LLOQ), where ±25% was acceptable.

[2] = Example 2 iris, retina, choroid and cornea tissue concentrations; assay type: in vivo, male New Zealand White rabbits; details: for Average / Conc. (ng/g) OS / Conc. (ng/mL) OS / Conc. (ng/mL) OD / Conc. (ng/g) OD: subcutaneous 5 mg/kg/dose (Group 3), free acid; for Average Peak Concentration, Choroid / Average Peak Concentration, Cornea / Average Peak Concentration, Iris / Average Peak Concentration, Retina: suspension
Protocol: as §1, §2, §3, §4, §5, §6

[3] = Group 3 (subcutaneous 5 mg/kg/dose, suspension), 2.0 hr
[4] = Group 3 (subcutaneous 5 mg/kg/dose, suspension), 4.0 hr
[5] = Group 3: subcutaneous 5 mg/kg/dose
[6] = Group 5 (intravitreal 2.5 mg/eye, suspension), 6.0 hr
[7] = Group 5 (intravitreal 2.5 mg/eye, suspension), 24 hr
[8] = Group 5 (intravitreal 2.5 mg/eye, suspension), 72 hr
[9] = Group 5: intravitreal 1.54 mg/kg/dose
[10] = Choroid, 1 hr, listed as Compound 1 (free acid)

COC(=O)N[C@@H](Cc1ccccc1)C(=O)N[C@@H](Cc1ccc(NS(=O)(=O)O)cc1)c1csc(-c2cccs2)n1 [Compound 1 free acid]
aqueous humor Average Conc. ([1]; Group 3 (subcutaneous 5 mg/kg/dose, suspension), 0.5 hr): 1.21 ng/g | aqueous humor Average Conc. ([1]; Group 3 (subcutaneous 5 mg/kg/dose, suspension), 1.0 hr): 0.41 ng/g | aqueous humor Average Conc. [1, 3]: 0.66 ng/g | aqueous humor Conc. OD [1, 3]: 0.601 ng/mL | aqueous humor Average Conc. [1, 4]: 0.51 ng/g | aqueous humor Conc. OS [1, 4]: 0.229 ng/mL | Average Peak Concentration, Aqueous Humor [1, 5]: 1.21 ng/g | aqueous humor Average Conc. [1, 6]: 26400 ng/g | aqueous humor Conc. OD [1, 6]: 34200 ng/mL and 23400 ng/mL | aqueous humor Average Conc. [1, 7]: 4270 ng/g | aqueous humor Conc. OD [1, 7]: 3890 ng/mL and 5540 ng/mL | aqueous humor Average Conc. ([1]; Group 5 (intravitreal 2.5 mg/eye, suspension), 48 hr): 915 ng/g | aqueous humor Average Conc. [1, 8]: 120 ng/g | aqueous humor Conc. OD [1, 8]: 145 ng/mL and 94.1 ng/mL | Average Peak Concentration, Aqueous Humor [1, 9]: 26400 ng/g | Average ([2]; Choroid, 0.5 hr): 127 ng/g | Conc. (ng/g) OS ([2]; Choroid, 0.5 hr): 83.1 ng/g and 154 ng/g | Conc. (ng/mL) OS ([2]; Choroid, 0.5 hr): 7.55 ng/mL and 14.0 ng/mL | Average ([2]; Choroid, 1 hr): 83.3 ng/g | Conc. (ng/mL) OD ([2]; Choroid, 1 hr): 8.65 ng/mL | Conc. (ng/g) OD [2, 10]: 66.4 ng/g and 95.2 ng/g | Conc. (ng/g) OS [2, 10]: 88.1 ng/g and 83.6 ng/g | Conc. (ng/mL) OD [2, 10]: 6.04 ng/mL | Conc. (ng/mL) OS [2, 10]: 8.01 ng/mL and 7.60 ng/mL | Average ([2]; Choroid, 2 hr): 47.7 ng/g | Conc. (ng/g) OD ([2]; Choroid, 2 hr): 36.5 ng/g and 46.9 ng/g | Conc. (ng/g) OS ([2]; Choroid, 2 hr): 53.2 ng/g and 54.3 ng/g | Conc. (ng/mL) OD ([2]; Choroid, 2 hr): 3.32 ng/mL and 4.26 ng/mL | Conc. (ng/mL) OS ([2]; Choroid, 2 hr): 4.84 ng/mL and 4.94 ng/mL | Average ([2]; Choroid, 4 hr): 61.0 ng/g | Conc. (ng/g) OD ([2]; Choroid, 4 hr): 53.0 ng/g and 51.2 ng/g | Conc. (ng/mL) OD ([2]; Choroid, 4 hr): 4.82 ng/mL and 4.65 ng/mL | Average ([2]; Cornea, 0.5 hr): 7.96 ng/g | Conc. (ng/g) OD ([2]; Cornea, 0.5 hr): 6.05 ng/g | Conc. (ng/g) OS ([2]; Cornea, 0.5 hr): 9.87 ng/g | Average ([2]; Cornea, 1 hr): 12.2 ng/g | Conc. (ng/g) OD ([2]; Cornea, 1 hr): 12.2 ng/g | Conc. (ng/mL) OS ([2]; Cornea, 1 hr): BLOQ | Average ([2]; Cornea, 2 hr): 5.65 ng/g | Conc. (ng/g) OD ([2]; Cornea, 2 hr): 5.65 ng/g | Conc. (ng/mL) OS ([2]; Cornea, 2 hr): BLOQ | Average ([2]; Cornea, 4 hr): 15.8 ng/g | Conc. (ng/g) OD ([2]; Cornea, 4 hr): 10.4 ng/g and 9.32 ng/g | Conc. (ng/mL) OD ([2]; Cornea, 4 hr): 0.942 ng/mL and 0.847 ng/mL | Average Peak Concentration, Choroid [2, 5]: 127 ng/g | Average Peak Concentration, Cornea [2, 5]: 7.96 ng/g | Average Peak Concentration, Iris [2, 5]: 50.3 ng/g | Average Peak Concentration, Retina [2, 5]: 38.7 ng/g | Average Peak Concentration, Choroid [2, 9]: 663575 ng/g | Average Peak Concentration, Cornea [2, 9]: 54560 ng/g | Average Peak Concentration, Iris [2, 9]: 210650 ng/g | Average Peak Concentration, Retina [2, 9]: 1988250 ng/g | Average ([2]; Iris, 0.5 hr): 50.3 ng/g | Conc. (ng/g) OS ([2]; Iris, 0.5 hr): 47.0 ng/g and 38.9 ng/g | Conc. (ng/mL) OS ([2]; Iris, 0.5 hr): 4.27 ng/mL and 3.54 ng/mL | Average ([2]; Iris, 1 hr): 58.0 ng/g | Conc. (ng/g) OS ([2]; Iris, 1 hr): 47.6 ng/g and 34.3 ng/g | Conc. (ng/mL) OS ([2]; Iris, 1 hr): 4.33 ng/mL and 3.12 ng/mL | Average ([2]; Iris, 2 hr): 27.6 ng/g | Conc. (ng/g) OD ([2]; Iris, 2 hr): 30.5 ng/g and 32.0 ng/g | Conc. (ng/g) OS ([2]; Iris, 2 hr): 29.5 ng/g | Conc. (ng/mL) OD ([2]; Iris, 2 hr): 2.77 ng/mL and 2.91 ng/mL | Conc. (ng/mL) OS ([2]; Iris, 2 hr): 2.68 ng/mL and 1.67 ng/mL | Average ([2]; Iris, 4 hr): 17.5 ng/g | Conc. (ng/g) OD ([2]; Iris, 4 hr): 26.5 ng/g and 17.9 ng/g | Conc. (ng/g) OS ([2]; Iris, 4 hr): 16.9 ng/g and 8.73 ng/g | Conc. (ng/mL) OD ([2]; Iris, 4 hr): 2.41 ng/mL and 1.63 ng/mL | Conc. (ng/mL) OS ([2]; Iris, 4 hr): 1.54 ng/mL and 0.794 ng/mL | Average ([2]; Retina, 0.5 hr): 38.7 ng/g | Average ([2]; Retina, 1 hr): 10.2 ng/g | Conc. (ng/g) OD ([2]; Retina, 1 hr): 10.4 ng/g | Conc. (ng/g) OS ([2]; Retina, 1 hr): 6.93 ng/g and 13.3 ng/g | Conc. (ng/mL) OS ([2]; Retina, 1 hr): 0.63 ng/mL and 1.21 ng/mL | Average ([2]; Retina, 2 hr): 10.5 ng/g | Conc. (ng/g) OD ([2]; Retina, 2 hr): 6.31 ng/g | Conc. (ng/g) OS ([2]; Retina, 2 hr): 6.93 ng/g | Average ([2]; Retina, 4 hr): 35.3 ng/g | Conc. (ng/mL) OD ([2]; Retina, 4 hr): BLOQ | Choroid Conc. OS ([2]; choroid homogenate, 6.0 hr, left eye, individual animals, intravitreal 2.5 mg/eye (~1.54 mg/kg), group 5): 63400 ng/mL and 69700 ng/mL | Choroid Conc. OD ([2]; choroid homogenate, 6.0 hr, right eye, individual animals, intravitreal 2.5 mg/eye (~1.54 mg/kg), group 5): 32800 ng/mL and 75400 ng/mL
